Molecular target: T1, α4β7 integrin (Homo sapiens, UniProt P13612+P26010)
T1 construct: monitoring the capture of α4β7 integrin expressing cells on a recombinant MadCAM-1 extracellular domain-coated plate; endogenous in cells; host or cells: RPMI8866 cells
T1 sequence (P13612 34-1032): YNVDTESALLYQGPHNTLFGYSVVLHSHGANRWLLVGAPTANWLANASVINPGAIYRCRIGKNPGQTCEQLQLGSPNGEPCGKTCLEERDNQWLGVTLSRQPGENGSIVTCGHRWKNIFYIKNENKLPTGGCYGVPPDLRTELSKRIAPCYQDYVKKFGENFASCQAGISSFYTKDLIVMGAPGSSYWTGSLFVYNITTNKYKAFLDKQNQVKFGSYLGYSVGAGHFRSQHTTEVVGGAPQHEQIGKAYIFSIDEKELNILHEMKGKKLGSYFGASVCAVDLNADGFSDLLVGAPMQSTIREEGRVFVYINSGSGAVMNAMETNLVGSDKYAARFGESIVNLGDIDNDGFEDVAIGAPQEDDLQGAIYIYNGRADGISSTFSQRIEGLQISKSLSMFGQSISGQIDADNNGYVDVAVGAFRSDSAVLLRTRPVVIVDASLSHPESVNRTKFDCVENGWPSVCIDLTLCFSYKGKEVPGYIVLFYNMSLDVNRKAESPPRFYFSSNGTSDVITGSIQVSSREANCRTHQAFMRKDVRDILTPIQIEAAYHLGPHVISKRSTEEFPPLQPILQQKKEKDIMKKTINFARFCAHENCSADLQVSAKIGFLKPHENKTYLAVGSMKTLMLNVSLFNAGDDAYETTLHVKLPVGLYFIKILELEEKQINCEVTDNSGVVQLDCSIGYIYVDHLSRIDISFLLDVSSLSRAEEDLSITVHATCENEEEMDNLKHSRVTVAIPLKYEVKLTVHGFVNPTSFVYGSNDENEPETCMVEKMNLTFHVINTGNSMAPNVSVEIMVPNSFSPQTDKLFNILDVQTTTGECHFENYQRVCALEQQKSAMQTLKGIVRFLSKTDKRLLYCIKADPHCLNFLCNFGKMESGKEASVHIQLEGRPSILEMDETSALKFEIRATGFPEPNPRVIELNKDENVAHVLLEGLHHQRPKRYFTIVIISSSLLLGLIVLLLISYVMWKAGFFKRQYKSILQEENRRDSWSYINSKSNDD
T1 sequence (P26010 20-798): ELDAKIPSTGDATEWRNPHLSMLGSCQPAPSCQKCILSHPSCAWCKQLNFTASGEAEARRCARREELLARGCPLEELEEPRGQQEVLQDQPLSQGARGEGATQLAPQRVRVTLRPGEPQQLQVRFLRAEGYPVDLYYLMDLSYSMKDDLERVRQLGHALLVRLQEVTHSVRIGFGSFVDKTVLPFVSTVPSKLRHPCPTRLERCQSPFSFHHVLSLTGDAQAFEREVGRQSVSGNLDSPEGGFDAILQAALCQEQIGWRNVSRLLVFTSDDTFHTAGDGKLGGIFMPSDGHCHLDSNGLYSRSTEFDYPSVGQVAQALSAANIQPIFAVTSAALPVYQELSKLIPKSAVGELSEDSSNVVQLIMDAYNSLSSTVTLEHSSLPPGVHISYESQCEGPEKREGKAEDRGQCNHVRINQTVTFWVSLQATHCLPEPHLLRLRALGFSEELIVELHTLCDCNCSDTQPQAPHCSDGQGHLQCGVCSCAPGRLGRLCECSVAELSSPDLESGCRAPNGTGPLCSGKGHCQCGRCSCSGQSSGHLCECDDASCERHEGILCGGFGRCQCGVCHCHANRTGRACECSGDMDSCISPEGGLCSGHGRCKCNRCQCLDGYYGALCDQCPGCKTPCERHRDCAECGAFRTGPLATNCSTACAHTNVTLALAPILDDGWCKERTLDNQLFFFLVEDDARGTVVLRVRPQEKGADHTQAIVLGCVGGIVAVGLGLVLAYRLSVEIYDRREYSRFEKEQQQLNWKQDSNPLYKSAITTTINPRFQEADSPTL
Experiment: α4β7 Integrin Cell Capture Assay
Format: cell-based
Conditions: capture of α4β7 integrin expressing RPMI8866 cells on recombinant MadCAM-1 extracellular domain-coated plate; DMEM+0.5% FBS+0.5 mM MnCl2; read-out: EC50 α4β7
Method in brief: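 RPMI8866 cells in DMEM + 0.5% FBS + 0.5 mM MnCl2 preincubated with compound 1 h at 37 °C, then allowed to bind 30 min at 37 °C to plates coated with MAdCAM-1 extracellular domain (1.0 μg/mL). Cells fixed with glutaraldehyde, Hoechst-stained, imaged and bound cells counted; EC50 from cell count versus concentration.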

| Structure (SMILES) | EC50 |
| --- | --- |
| Cn1cccc(-c2ccc(C[C@H](NC(=O)c3c(Cl)cccc3Cl)C(=O)O)c3ncccc23)c1=O [Example 39, (S)-2-(2,6-dichlorobenzamido)-3-(5-(1-methyl-2-oxo-1,2-dihydropyridin-3-yl)quinolin-8-yl)propanoic acid] | 74 nM |
| Cc1ccc(-c2ccc(C[C@H](NC(=O)c3c(Cl)cccc3Cl)C(=O)O)c3ncccc23)c(=O)n1C [Example 33, (S)-2-(2,6-dichlorobenzamido)-3-(5-(1,6-dimethyl-2-oxo-1,2-dihydropyridin-3-yl)quinolin-8-yl)propanoic acid] | 12.2 nM |
| Cc1c(-c2ccc(C[C@H](NC(=O)c3c(Cl)cccc3Cl)C(=O)O)c3ncccc23)c(=O)n(C)c2ccccc12 [Example 34, (S)-2-(2,6-dichlorobenzamido)-3-(1,4-dimethyl-2-oxo-1,2-dihydro-[3,5′-biquinolin]-8′-yl)propanoic acid] | 4 nM |
| CCOCc1cc(OC)c(-c2ccc(C[C@H](NC(=O)c3c(F)cc(NS(=O)(=O)c4ccc(-c5ccnc(F)c5)cc4)cc3F)C(=O)O)c3nc(C)oc23)c(OC)c1 [Example 151, (S)-2-(2,6-difluoro-4-((4-(2-fluoropyridin-4-yl)phenyl)sulfonamido)benzamido)-3-(7-(4-(ethoxymethyl)-2,6-dimethoxyphenyl)-2-methylbenzo[d]oxazol-4-yl) propanoic acid] | 5.8 nM |
| Cn1c(=O)c(-c2ccc(C[C@H](NC(=O)c3c(Cl)cccc3Cl)C(=O)O)c3ncccc23)c(C(F)(F)F)c2ccccc21 (single isomer, unassigned) [Example 63] | 33.8 nM |
| COc1cccc(OC)c1-c1ccc(C[C@H](NC(=O)c2c(F)cc(NS(=O)(=O)c3ccc(-c4ccnc(F)c4)cc3)cc2F)C(=O)O)c2nccnc12 [Example 154, (S)-2-(2,6-difluoro-4-((4-(2-fluoropyridin-4-yl)phenyl)sulfonamido)benzamido)-3-(8-(2,6-dimethoxyphenyl)quinoxalin-5-yl)propanoic acid] | 2.6 nM |
| Cc1cnc(-c2ccc(C[C@H](NC(=O)c3c(F)cc(N4CCOC[C@@H]4C(F)(F)F)cc3F)C(=O)O)c3ccccc23)nc1C [Example 141, (S)-2-(2,6-difluoro-4-((R)-3-(trifluoromethyl)morpholino)benzamido)-3-(4-(4,5-dimethylpyrimidin-2-yl)naphthalen-1-yl)propanoic acid] | 3.6 nM |
| CCOCc1cc(OC)c(-c2ccc(C[C@H](NC(=O)c3c(F)cccc3F)C(=O)O)c3ncccc23)c(OC)c1 [Example 78, (S)-2-(2,6-difluorobenzamido)-3-(5-(4-(ethoxymethyl)-2,6-dimethoxyphenyl)quinolin-8-yl)propanoic acid] | 12.4 nM |
| CC1(C)C=Cc2c(C[C@H](NC(=O)c3c(Cl)cccc3Cl)C(=O)O)ccc(-c3c(Cl)cc(F)cc3Cl)c2O1 [Example 170, (S)-3-(8-(2,6-dichloro-4-fluorophenyl)-2,2-dimethyl-2H-chromen-5-yl)-2-(2,6-dichlorobenzamido)propanoic acid] | 206 nM |
| Cc1c(-c2ccc(C[C@H](NC(=O)c3c(F)cccc3F)C(=O)O)c3ncccc23)c(=O)n(C)c(=O)n1C (single isomer, unassigned) [Example 82] | 39 nM |
| COc1cc(F)c(F)cc1-c1ccc(C[C@H](NC(=O)c2c(Cl)cccc2Cl)C(=O)O)c2nccc(Cl)c12 (single isomer, unassigned) [Example 96] | 572 nM |
| Cc1c(-c2ccc(C[C@H](NC(=O)c3c(Cl)cccc3Cl)C(=O)O)c3ncccc23)c(=O)n(C)c2cc(Cl)ccc12 (single isomer, unassigned) [Example 77] | 60.4 nM |
| COc1cccc(Cl)c1-c1ccc(C[C@H](NC(=O)c2c(Cl)cccc2Cl)C(=O)O)c2ncccc12 [Example 37, (2S)-3-(5-(2-chloro-6-methoxyphenyl)quinolin-8-yl)-2-(2,6-dichlorobenzamido) propanoic acid] | 65.6 nM |
| CC[C@@H](Nc1cc(F)c(C(=O)N[C@@H](Cc2ccc(-c3c(C(F)(F)F)cc(C)n(C)c3=O)c3ccccc23)C(=O)O)c(F)c1)C(F)(F)F (single isomer, unassigned) [Example 134] | 8.3 nM |

Stronger by EC50, values ahead:

| EC50 | Structure (SMILES) |
| --- | --- |
| 1.9 nM | COc1cccc(OC)c1-c1ccc(C[C@H](NC(=O)c2c(F)cc(NS(=O)(=O)c3ccc(-c4ccnc(F)c4)cc3)cc2F)C(=O)O)c2ccccc12 [Example 103, (S)-2-(2,6-difluoro-4-((4-(2-fluoropyridin-4-yl)phenyl)sulfonamido)benzamido)-3-(4-(2,6-dimethoxyphenyl)naphthalen-1-yl)propanoic acid] |
| 1.7 nM | CCOCc1cc(OC)c(-c2ccc(C[C@@H](NC(=O)c3c(F)cc(NS(=O)(=O)c4ccc(-c5ccnc(F)c5)cc4)cc3F)C(=O)O)c3ccncc23)c(OC)c1 (single isomer, unassigned) [Example 162] |
| 1.6 nM | CCOCc1cc(OC)c(-c2ccc(C[C@H](NC(=O)c3c(F)cc(NS(=O)(=O)c4ccc(-c5ccnc(F)c5)cc4)cc3F)C(=O)O)c3nccnc23)c(OC)c1 [Example 155, (S)-2-(2,6-difluoro-4-((4-(2-fluoropyridin-4-yl)phenyl)sulfonamido)benzamido)-3-(8-(4-(ethoxymethyl)-2,6-dimethoxyphenyl)quinoxalin-5-yl)propanoic acid] |
| 1 nM | CC[C@@H](Nc1cc(F)c(C(=O)N[C@@H](Cc2ccc(-c3c(C(F)(F)F)cc(C)n(C)c3=O)c3ccccc23)C(=O)O)c(F)c1)C(F)(F)F (single isomer, unassigned) [Example 135] |
| 0.4 nM | CC[C@@H](Nc1cc(F)c(C(=O)N[C@@H](Cc2ccc(-c3c(C)n(C)c(=O)n(C)c3=O)c3ccccc23)C(=O)O)c(F)c1)C(F)(F)F [Example 139, (S)-2-(2,6-difluoro-4-(((R)-1,1,1-trifluorobutan-2-yl)amino)benzamido)-3-(4-(1,3,6-trimethyl-2,4-dioxo-1,2,3,4-tetrahydropyrimidin-5-yl)naphthalen-1-yl)propanoic acid] |
| 0.4 nM | CC[C@@H](Nc1cc(F)c(C(=O)N[C@@H](Cc2ccc(-c3c(C)c4cc(F)ccc4n(C)c3=O)c3nccnc23)C(=O)O)c(F)c1)C(F)(F)F [Example 158, (S)-2-(2,6-difluoro-4-(((R)-1,1,1-trifluorobutan-2-yl)amino)benzamido)-3-(8-(6-fluoro-1,4-dimethyl-2-oxo-1,2-dihydroquinolin-3-yl)quinoxalin-5-yl)propanoic acid] |
| 0.3 nM | CCOCc1cc(OC)c(-c2ccc(C[C@H](NC(=O)c3c(F)cc(NS(=O)(=O)c4ccc(-c5ccnc(F)c5)cc4)cc3F)C(=O)O)c3nsnc23)c(OC)c1 [Example 149, (S)-2-(2,6-difluoro-4-((4-(2-fluoropyridin-4-yl)phenyl)sulfonamido)benzamido)-3-(7-(4-(ethoxymethyl)-2,6-dimethoxyphenyl)benzo[c]-[1,2,5]thiadiazol-4-yl)propanoic acid] |
| 0.1 nM | Cc1cc(C(F)(F)F)c(-c2ccc(C[C@H](NC(=O)c3c(F)cc(N4CCOC[C@@H]4C(F)(F)F)cc3F)C(=O)O)c3ccccc23)c(=O)n1C (single isomer, unassigned) [Example 129] |

Source: patent publication US11179383B2 (Gilead Sciences, Inc., priority 2018, dated 2021)
